The target of experiment [1] is Tyrosine-protein kinase JAK2 (Homo sapiens, UniProt O60674).
The target in experiment [2] is Tyrosine-protein kinase JAK1 (Homo sapiens, UniProt P23458). As to the kind of experiment: Subsequent reagent additions employed an Agilent Bravo.

Where “and” joins values, the source holds several entries; their conditions need not be identical. Equal entries are not always repeated.

Sequence of Tyrosine-protein kinase JAK2 (O60674 whole entry): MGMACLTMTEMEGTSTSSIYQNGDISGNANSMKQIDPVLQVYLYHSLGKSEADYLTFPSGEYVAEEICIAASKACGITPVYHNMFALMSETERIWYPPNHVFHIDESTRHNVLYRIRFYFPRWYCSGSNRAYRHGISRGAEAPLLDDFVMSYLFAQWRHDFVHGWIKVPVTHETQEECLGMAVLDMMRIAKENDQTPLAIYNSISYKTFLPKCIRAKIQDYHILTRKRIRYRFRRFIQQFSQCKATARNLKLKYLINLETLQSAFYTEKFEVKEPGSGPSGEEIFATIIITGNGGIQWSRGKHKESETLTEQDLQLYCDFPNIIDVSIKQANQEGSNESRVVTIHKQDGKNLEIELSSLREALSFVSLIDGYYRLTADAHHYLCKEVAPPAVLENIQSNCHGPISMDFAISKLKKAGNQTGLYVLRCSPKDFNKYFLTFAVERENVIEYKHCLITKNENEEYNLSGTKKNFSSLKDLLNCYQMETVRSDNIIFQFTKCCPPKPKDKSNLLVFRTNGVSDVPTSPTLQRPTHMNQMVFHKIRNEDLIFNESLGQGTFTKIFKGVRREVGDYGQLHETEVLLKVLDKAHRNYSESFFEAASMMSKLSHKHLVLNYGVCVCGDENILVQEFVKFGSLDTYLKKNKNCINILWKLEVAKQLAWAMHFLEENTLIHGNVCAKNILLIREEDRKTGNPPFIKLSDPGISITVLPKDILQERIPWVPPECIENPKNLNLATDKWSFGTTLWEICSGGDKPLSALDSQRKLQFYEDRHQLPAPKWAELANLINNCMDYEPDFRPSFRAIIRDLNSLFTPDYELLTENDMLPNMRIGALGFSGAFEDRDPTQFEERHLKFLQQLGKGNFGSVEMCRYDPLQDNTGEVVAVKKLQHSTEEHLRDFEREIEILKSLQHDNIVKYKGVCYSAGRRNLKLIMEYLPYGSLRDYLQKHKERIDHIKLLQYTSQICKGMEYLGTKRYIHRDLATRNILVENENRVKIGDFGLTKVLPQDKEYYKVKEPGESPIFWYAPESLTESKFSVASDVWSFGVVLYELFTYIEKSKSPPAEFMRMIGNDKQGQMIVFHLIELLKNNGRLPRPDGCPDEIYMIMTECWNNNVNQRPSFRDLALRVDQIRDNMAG
Sequence of Tyrosine-protein kinase JAK1 (P23458 whole entry): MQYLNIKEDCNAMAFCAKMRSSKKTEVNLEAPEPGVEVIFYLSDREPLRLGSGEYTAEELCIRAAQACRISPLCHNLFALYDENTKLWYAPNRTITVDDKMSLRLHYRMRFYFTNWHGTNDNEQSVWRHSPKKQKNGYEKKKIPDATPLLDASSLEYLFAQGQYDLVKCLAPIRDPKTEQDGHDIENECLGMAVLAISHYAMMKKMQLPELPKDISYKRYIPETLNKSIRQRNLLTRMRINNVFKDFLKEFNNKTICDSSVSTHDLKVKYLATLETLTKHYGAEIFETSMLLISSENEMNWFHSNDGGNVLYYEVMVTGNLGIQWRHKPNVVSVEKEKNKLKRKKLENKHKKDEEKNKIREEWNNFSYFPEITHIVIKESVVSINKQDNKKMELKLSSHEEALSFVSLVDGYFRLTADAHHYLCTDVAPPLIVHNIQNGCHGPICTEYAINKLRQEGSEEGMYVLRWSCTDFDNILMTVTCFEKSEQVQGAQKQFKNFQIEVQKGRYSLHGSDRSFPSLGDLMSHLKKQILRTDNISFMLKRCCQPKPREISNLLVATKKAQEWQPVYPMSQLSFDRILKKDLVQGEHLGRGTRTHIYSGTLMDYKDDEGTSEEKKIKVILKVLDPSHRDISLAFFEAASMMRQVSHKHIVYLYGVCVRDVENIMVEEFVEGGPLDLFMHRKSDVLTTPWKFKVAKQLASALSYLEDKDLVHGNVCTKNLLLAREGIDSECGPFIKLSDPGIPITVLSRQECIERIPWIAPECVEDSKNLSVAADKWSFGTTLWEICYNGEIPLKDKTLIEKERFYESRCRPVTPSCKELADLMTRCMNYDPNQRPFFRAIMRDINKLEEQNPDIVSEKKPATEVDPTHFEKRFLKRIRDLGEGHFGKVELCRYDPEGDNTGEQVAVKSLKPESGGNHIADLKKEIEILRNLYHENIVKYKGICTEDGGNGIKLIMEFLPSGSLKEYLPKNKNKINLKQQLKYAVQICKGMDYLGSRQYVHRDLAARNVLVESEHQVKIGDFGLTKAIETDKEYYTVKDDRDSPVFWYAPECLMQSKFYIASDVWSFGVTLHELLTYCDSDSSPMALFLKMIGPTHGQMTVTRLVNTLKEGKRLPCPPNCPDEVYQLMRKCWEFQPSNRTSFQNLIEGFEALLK

On to `N#CCC1(n2cc(C(N)=O)c(Nc3ccnc(F)c3)n2)CCC(N)CC1` (stereo not given), for which the IC50 in experiment [1] was > 1500 nM and 161 nM.
For the compound `CN(C)C(=O)c1ccc(Nc2nn(C3(CC#N)CCN(C(=O)OC(C)(C)C)CC3)cc2C(N)=O)cc1`, the figures for the IC50 in experiment [2] and in experiment [1] were 0.7 nM and 2 nM, respectively.
On to `CC(C)(C)OC(=O)N1CCC(CC#N)(n2cc(C(N)=O)c(Nc3cc(Cl)nc(Cl)c3)n2)CC1`, for which the IC50 in experiment [2] was found to be 1 nM; in experiment [1], 33 nM.

Values taken from ChEMBL document CHEMBL3886705, “Cyanomethylpyrazole carboxamides as janus kinase inhibitors” (2016).
